Patent US8741347B2, “Method for forming cyclodextrin polymer and lipophilic compound emulsions, resulting emulsions, and compositions including said emulsions” (Centre National de la Recherche Scientifique—CNRS, priority 2009, dated 2014)

Experiments:
[1] = Interfacial rheology, interfacial tension by the drop method (Tracker); type: physicochemical
Procedure: The interface (oil/aqueous solution of polymer) elastic behavior is measured from the variation in interfacial tension. The apparatus used for measuring the elastic properties is a Tracker®, manufactured by the company […] Concept. The interfacial tension is measured by the drop method. A deformation of the interfacial area by dilation or by contraction of the volume of the drop creates a variation in the interfacial concentration of the polymers adsorbed at the interface. The Tracker® records the response of the interfacial tension and subsequently establishes the relationship between the deformation of the interface and this response, which describes the rheological behavior of the interface. A deformation of the interfacial area is repeated over time by imposing a sinusoidal variation in the volume of the drop, and thus makes it possible to establish the viscoelastic characteristics of the interface. […] The drop is formed at the end of the capillary connected to a syringe, the plunger of which is controlled by a motor. The needle used has a 180° curve in order to have a rising drop, the density of the oils being in this case lower than that of the aqueous phase. The gauge of the needle is 18, which corresponds to an internal diameter of 0.84 mm and an external diameter of 1.27 mm. The needle is made of Teflon in order to avoid wetting of the drop on the walls of the needle. […]

[2] = Emulsion formation and stability over time, optical microscopy observation on storage; type: physicochemical; details: cyclodextrin monomer 17 mg/ml in water + 10 mg Parsol MCX per ml, pulsed sonication 40 s, stored at 25° C. with tangential agitation
Procedure: The α-, β- or γ-cyclodextrin monomers are placed in solution in water at a concentration of 17 mg/ml. 10 mg of Parsol® MCX are added to 1 ml of the aqueous solution of α-, β- or γ-cyclodextrin thus prepared. The mixture is then subjected to pulsed sonication for 40 seconds in an ice-cold bath (0° C.). The resulting product is stored at 25° C. with tangential agitation.
The α-, β- or γ-cyclodextrin dimers/trimers are put into solution in water. 10 mg of Parsol® MCX are added to 1 ml of the aqueous solution of α-, β- or γ-cyclodextrin dimer/trimer thus prepared. The mixture is then subjected to pulsed sonication for 40 seconds in an ice-cold bath (0° C.). The resulting product is stored at 25° C. with tangential agitation.
The resulting emulsions are conditioned for storage at 25° C., with tangential agitation, at 37° C. or 4° C. for a varying period ranging from a few days up to a few months before use.
Emulsions (a) to (c) are formed by pulsed sonication for a period of 40 seconds and stored at 25° C.

CC(C)=CCC/C(C)=C/CC/C(C)=C/CC/C=C(\C)CC/C=C(\C)CCC=C(C)C [squalene]
interfacial tension ([1]; oil drop in aqueous poly-β-CD solution): approximately 12 mN/m

OC[C@H]1O[C@@H]2O[C@H]3[C@H](O)[C@@H](O)[C@@H](O[C@H]4[C@H](O)[C@@H](O)[C@@H](O[C@H]5[C@H](O)[C@@H](O)[C@@H](O[C@H]6[C@H](O)[C@@H](O)[C@@H](O[C@H]7[C@H](O)[C@@H](O)[C@@H](O[C@H]1[C@H](O)[C@H]2O)O[C@@H]7CO)O[C@@H]6CO)O[C@@H]5CO)O[C@@H]4CO)O[C@@H]3CO [α-cyclodextrin monomers, α-cyclodextrin]
outcome of attempt to prepare an emulsion [2]: formation of an insoluble precipitate | outcome of attempt to prepare an emulsion ([2]; listed as α-monomers): an insoluble precipitate is formed as early as the first day (day zero)

OC[C@H]1O[C@@H]2O[C@H]3[C@H](O)[C@@H](O)[C@@H](O[C@H]4[C@H](O)[C@@H](O)[C@@H](O[C@H]5[C@H](O)[C@@H](O)[C@@H](O[C@H]6[C@H](O)[C@@H](O)[C@@H](O[C@H]7[C@H](O)[C@@H](O)[C@@H](O[C@H]8[C@H](O)[C@@H](O)[C@@H](O[C@H]1[C@H](O)[C@H]2O)O[C@@H]8CO)O[C@@H]7CO)O[C@@H]6CO)O[C@@H]5CO)O[C@@H]4CO)O[C@@H]3CO [β-cyclodextrin monomers, β-cyclodextrin]
outcome of attempt to prepare an emulsion [2]: formation of an insoluble precipitate | outcome of attempt to prepare an emulsion ([2]; listed as β-monomers): an insoluble precipitate is formed as early as the first day (day zero) | behaviour of the oil/aqueous solution interface ([1]; squalene (borage, ginger) drop in aqueous cyclodextrin solution): formation of a rigid membrane at the surface of the squalene drop

OC[C@H]1O[C@@H]2O[C@H]3[C@H](O)[C@@H](O)[C@@H](O[C@H]4[C@H](O)[C@@H](O)[C@@H](O[C@H]5[C@H](O)[C@@H](O)[C@@H](O[C@H]6[C@H](O)[C@@H](O)[C@@H](O[C@H]7[C@H](O)[C@@H](O)[C@@H](O[C@H]8[C@H](O)[C@@H](O)[C@@H](O[C@H]9[C@H](O)[C@@H](O)[C@@H](O[C@H]1[C@H](O)[C@H]2O)O[C@@H]9CO)O[C@@H]8CO)O[C@@H]7CO)O[C@@H]6CO)O[C@@H]5CO)O[C@@H]4CO)O[C@@H]3CO [γ-cyclodextrins, γ-cyclodextrin]
outcome of attempt to prepare an emulsion [2]: formation of an emulsion (for two days) and then a precipitation | outcome of attempt to prepare an emulsion ([2]; listed as γ-monomer): initially forms an emulsion and then precipitates rapidly (two days)
